Like-named read-outs stand apart in the source and are kept apart here.
How the values were obtained:
[1] = system: HPIV3 clinical isolate (CI-1) eGFP
mCherry-HPIV3 [2] = experiment: microbe, parasite or virus in culture; settings: Human respirovirus 3, Vero, read-out: IC50 of pure compound (inhibition of viral spread)
mCherry-HPIV3 [3] = system: mCherry-HPIV3
[4] = system: HPIV3 clinical isolate HN neuraminidase; experiment: Neuraminidase activity on cell monolayers expressing HN; format: biochemical, human parainfluenza virus type 3; settings: 37°C, pH 5
Experimental: (§1) (A) Sensitivity of HN-receptor binding to viral entry inhibitors of cell monolayers expressing clinical isolate HPIV3 HN, incubated with either PAC-3066, zanamivir, or DMSO. Percent inhibition relative to that for DMSO-treated cells is shown. Each point represents the mean from 3 experiments, each of which was performed in triplicate, ± SEM. […] Each bar represents the results from triplicate experiments, each of which was performed in triplicate, ± SEM.
Assays for the measurement of neuraminidase activity were performed in transiently transfected 293T cell monolayers, as described previously ([13], [34], [82]). Briefly, 293T cells expressing HN were added to 96-well plates in CO2-independent medium at pH 5.0. After adding reaction mixtures containing 20 mM 2′-(4-methylumbelliferyl)-alpha-D-N-acetylneuraminic acid (Toronto Research Chemicals Inc.) substrate and different concentrations of the compounds, the plates were incubated at 37°C for 1 h. Throughout this period, the fluorescence resulting from hydrolysis of the substrate was read at a 365-nm excitation wavelength and a 450-nm emission wavelength using a Tecan M-1000 Pro microplate reader.

[5] = system: HPIV3 clinical isolate (CI-1) eGFP; experiment: microbe, parasite or virus in culture; settings: Human respirovirus 3, read-out: IC50 for inhibition of viral entry
[6] = system: clinical isolate HPIV3 HN; experiment: Hemadsorption (HAD) assay of HN-receptor binding; format: cell-based, human parainfluenza virus type 3; settings: cells expressing clinical strain HN, RBC binding
Experimental: We assessed the effect of PAC-3066 on HPIV3 HN-receptor binding in a hemadsorption (HAD) assay that quantitates the binding of sialic acid receptor-bearing erythrocytes (RBC) to HN/F-coexpressing cells.
as §1
Hemadsorption (HAD) was performed and quantified as previously described ([13]). Briefly, the growth medium was aspirated from HN-transfected 293T cell monolayers in 48-well BioCoat plates (Becton Dickson Labware), the medium was replaced with 150 μl of CO2-independent medium (pH 7.3; Gibco) containing different concentrations of compounds and 1% RBC in serum-free CO2-independent medium, and the plates were placed at 4°C for 30 min. The wells were then washed three times with 150 μl cold CO2-independent medium. The bound RBCs were lysed with 200 μl RBC lysis solution (0.145 M NH4Cl, 17 mM Tris HCl), and the absorbance at 405 nm was read using a Tecan M-1000 Pro microplate reader.

Structure (SMILES) | inhibition of viral infection by HPIV3 [1] | IC50 (mCherry-HPIV3 [2]) | combination effect with zanamivir (mCherry-HPIV3 [3]; PAC-3066 concentrations below 250 μM) | antagonism with zanamivir (mCherry-HPIV3 [3]; all pairwise combinations) | combination effect with zanamivir (mCherry-HPIV3 [3]; higher PAC-3066 concentrations, e.g. 1,000 μM) | combination effect with zanamivir (mCherry-HPIV3 [3]; range of zanamivir/PAC-3066 ratios, strongest at 1:1, 1:3 or greater, PAC-3066 250 μM, Combenefit) | effect on viral neuraminidase activity [4] | IC50 [5] | effect on HN-receptor binding [6]
N#CCc1cc(NS(=O)(=O)c2cccs2)ccc1O [CM9, reference compound] | inhibited viral infection by HPIV3 |  |  |  |  |  |  |  | 
CC(=O)Nc1cc(NS(=O)(=O)c2ccc(F)cc2F)ccc1O [PAC-3066] | inhibited viral infection by HPIV3 | 308 µM | only additive effects were observed | No significant antagonism was observed | no synergy | strong synergy | no inhibitory effect | ~37 µM | did not affect receptor binding
CC(=O)N[C@H]1[C@H]([C@H](O)[C@H](O)CO)OC(C(=O)O)=C[C@@H]1N=C(N)N [zanamivir, reference compound] |  |  |  |  |  |  | inhibits HPIV3 HN’s neuraminidase |  | inhibits HN-receptor binding

— publication PMC7018645, “Hijacking the Fusion Complex of Human Parainfluenza Virus as an Antiviral Strategy” (mBio, 2020)
